Laboratory results reported in patent US20130324522A1, “INSECT ODORANT RECEPTOR ANTAGONISTS” (THE ROCKEFELLER UNIVERSITY, priority 2010, published 2013).
Where two headings read alike, the source gives them in different places.

Experiments:
Type in all cases: cell-based
[1] = molecular target: OR8/OR7 (Anopheles gambiae, UniProt Q7PUT5+Q7QCC7); assay: Ca2+-imaging of stable HEK293T cell line OR8/OR7; settings: for inhibition at 4 µM: HEK-293T, read-out: Percent Inhibition OR8 OR7
Procedure: (§1) Full-length cDNAs for mosquito (Anopheles gambiae) odorant receptor (OR1, OR2, OR7, OR8, OR28), and fly (Drosophila melanogaster) odorant receptor (Or47a, Or83b), mouse TRP channel (TRPM8), and mouse serotonin receptor (5HT3) were obtained and subcloned into mammalian expression vectors. The following mammalian expression vectors were used:
(§2) Stable cell lines OR1/OR7, OR2/OR7, OR8/OR7, OR10/OR7, OR28/OR7 and TRPM8 were generated from HEK293T cells. HEK293T-based cell lines were cultured in DMEM supplemented with these additional antibiotics: 6 μg/mL blasticidin and 1 μg/mL puromycin, with the exception of the TRPM8 cell lines, which was cultured in DMEM supplemented with 1 μg/mL puromycin.
(§3) Cells were trypsinized and split into 35 mm dishes one day before transfection. Confluent cells (60-70%) in 35 mm dishes were transfected with 1 μg of insect OR(X) plasmids in pME18s-bla and 1 μg of OR7-pME18s-puro using lipofectamine 2000. For Anopheles odorant receptors, two plasmids were co-transfected into HEK cells: the ligand-specific receptor (OR1, OR2, OR8, OR28) and the corresponding olfactory co-receptor: OR7. Cell lines containing TRPM8 were transfected with single plasmid.
(§4) Stable cell lines were cultured in 10 cm dishes, and confluent cells (70-80%) were trypsinized. 10,000 cells/20 μL were transferred into each well of 384-well plates coated with poly-D-lysine, and cultured for 2 days. For Flip-In T-Rex cells (cell lines expressing Or47a/Or83b and 5HT3), 5 μL of tetracycline (5 μg/mL) were added 1 day before the assay. 20 μL of Ca-4 dye was loaded into each well for 1.5 hr at room temperature in the dark, and the dye-loaded plates were subjected to Ca^2+-imaging using a Hamamatsu FDSS6000 real time fluorescence plate reader. Odorant solutions (9× final concentration) were prepared by dissolving 1M stock solutions into Hank's Buffered Salt Solution (HBSS), and 30 μL of odor solution was transferred to each well in 384-well plates.
(§5) Compounds ([…] in DMSO) were stored in 384-well plates, and last two columns (32 wells total) contained only DMSO. 200 nL of small compounds were transferred into the odorant plates before the assay using the Perkin-Elmer Janus workstation. The odorant plates were spun down to remove air bubbles, and placed on the FDSS6000 plate loader, and 5 μL of odorant solution was applied to the cell plate on the FDSS6000. Ca^2+ increase was monitored with fluorescence at 525 nm by excitation at 485 nm.

[2] = molecular target: OR10/OR7 (Anopheles gambiae, UniProt B5U0U7+Q7QCC7); assay: Ca2+-imaging of stable HEK293T cell line OR10/OR7; settings: for inhibition at 4 µM: HEK-293T, read-out: Percent Inhibition OR10 OR7
Sequence of OR10/OR7 (Q7QCC7 whole entry): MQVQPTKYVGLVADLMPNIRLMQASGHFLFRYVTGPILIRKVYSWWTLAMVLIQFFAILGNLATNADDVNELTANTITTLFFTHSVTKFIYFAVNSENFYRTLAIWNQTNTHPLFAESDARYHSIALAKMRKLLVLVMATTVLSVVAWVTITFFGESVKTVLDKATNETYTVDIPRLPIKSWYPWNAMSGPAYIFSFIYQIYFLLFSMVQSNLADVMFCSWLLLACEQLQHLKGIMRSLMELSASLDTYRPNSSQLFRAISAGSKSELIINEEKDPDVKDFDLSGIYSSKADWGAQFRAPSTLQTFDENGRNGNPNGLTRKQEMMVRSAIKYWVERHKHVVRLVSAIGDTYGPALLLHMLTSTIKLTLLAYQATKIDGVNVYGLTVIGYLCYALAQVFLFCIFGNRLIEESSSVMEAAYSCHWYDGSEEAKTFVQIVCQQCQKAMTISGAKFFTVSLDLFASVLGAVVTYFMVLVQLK
Sequence of OR10/OR7 (B5U0U7 entry or part of it): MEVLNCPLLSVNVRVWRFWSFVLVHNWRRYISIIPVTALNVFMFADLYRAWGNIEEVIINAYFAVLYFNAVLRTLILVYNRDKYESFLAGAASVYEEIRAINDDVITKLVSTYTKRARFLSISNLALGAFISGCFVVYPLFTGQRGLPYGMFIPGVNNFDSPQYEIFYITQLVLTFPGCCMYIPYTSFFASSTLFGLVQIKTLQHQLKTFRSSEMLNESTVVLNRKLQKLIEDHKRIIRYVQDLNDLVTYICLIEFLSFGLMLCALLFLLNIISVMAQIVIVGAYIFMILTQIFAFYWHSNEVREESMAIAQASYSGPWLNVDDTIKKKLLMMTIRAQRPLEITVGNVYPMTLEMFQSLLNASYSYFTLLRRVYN
Procedure: as §2
After one day of incubation, the transfected cells were transferred into 10 cm dishes with DMEM containing antibiotics as follows: • 0.5 μg/mL of blasticidin for OR1/OR7, OR2/OR7, OR8/OR7, OR10/OR7, OR28/OR7 • 0.2 μg/mL of puromycin for TRPM8.
as §4, §5

[3] = molecular target: T1, mOREG (Mus musculus, UniProt Q920P2); assay: Ca2+-imaging, control receptor mOREG; settings: for inhibition at 4 µM: read-out: Percent Inhibition mOREG
T1 sequence (Q920P2 1-313): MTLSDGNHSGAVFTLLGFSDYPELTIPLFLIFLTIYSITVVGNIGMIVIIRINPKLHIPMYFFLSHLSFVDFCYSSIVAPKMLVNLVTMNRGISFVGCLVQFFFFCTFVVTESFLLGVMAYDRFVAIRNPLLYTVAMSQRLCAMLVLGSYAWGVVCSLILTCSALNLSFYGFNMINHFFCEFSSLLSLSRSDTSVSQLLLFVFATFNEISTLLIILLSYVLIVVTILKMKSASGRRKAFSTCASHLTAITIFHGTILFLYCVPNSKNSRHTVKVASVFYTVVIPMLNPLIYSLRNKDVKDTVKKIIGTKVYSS
Procedure: as §4, with “plates. The last two columns of the plate (32 wells total) were used as control wells as follows: • negative control with HBSS buffer (16 wells) • positive control with ligands (16 wells).” for “plates.”
as §5

[4] = molecular target: T2, TRP channel (TRPM8) (Mus musculus, UniProt Q8R4D5); assay: Ca2+-imaging of stable HEK293T cell line TRPM8; settings: for inhibition at 4 µM: HEK-293T, read-out: Percent Inhibition TRPM8
T2 construct: Full-length cDNAs for mosquito (Anopheles gambiae) odorant receptor (OR1, OR2, OR7, OR8, OR28), and fly (Drosophila melanogaster) odorant receptor (Or47a, Or83b), mouse TRP channel (TRPM8); expressed in transfected cells
T2 sequence (Q8R4D5 whole entry): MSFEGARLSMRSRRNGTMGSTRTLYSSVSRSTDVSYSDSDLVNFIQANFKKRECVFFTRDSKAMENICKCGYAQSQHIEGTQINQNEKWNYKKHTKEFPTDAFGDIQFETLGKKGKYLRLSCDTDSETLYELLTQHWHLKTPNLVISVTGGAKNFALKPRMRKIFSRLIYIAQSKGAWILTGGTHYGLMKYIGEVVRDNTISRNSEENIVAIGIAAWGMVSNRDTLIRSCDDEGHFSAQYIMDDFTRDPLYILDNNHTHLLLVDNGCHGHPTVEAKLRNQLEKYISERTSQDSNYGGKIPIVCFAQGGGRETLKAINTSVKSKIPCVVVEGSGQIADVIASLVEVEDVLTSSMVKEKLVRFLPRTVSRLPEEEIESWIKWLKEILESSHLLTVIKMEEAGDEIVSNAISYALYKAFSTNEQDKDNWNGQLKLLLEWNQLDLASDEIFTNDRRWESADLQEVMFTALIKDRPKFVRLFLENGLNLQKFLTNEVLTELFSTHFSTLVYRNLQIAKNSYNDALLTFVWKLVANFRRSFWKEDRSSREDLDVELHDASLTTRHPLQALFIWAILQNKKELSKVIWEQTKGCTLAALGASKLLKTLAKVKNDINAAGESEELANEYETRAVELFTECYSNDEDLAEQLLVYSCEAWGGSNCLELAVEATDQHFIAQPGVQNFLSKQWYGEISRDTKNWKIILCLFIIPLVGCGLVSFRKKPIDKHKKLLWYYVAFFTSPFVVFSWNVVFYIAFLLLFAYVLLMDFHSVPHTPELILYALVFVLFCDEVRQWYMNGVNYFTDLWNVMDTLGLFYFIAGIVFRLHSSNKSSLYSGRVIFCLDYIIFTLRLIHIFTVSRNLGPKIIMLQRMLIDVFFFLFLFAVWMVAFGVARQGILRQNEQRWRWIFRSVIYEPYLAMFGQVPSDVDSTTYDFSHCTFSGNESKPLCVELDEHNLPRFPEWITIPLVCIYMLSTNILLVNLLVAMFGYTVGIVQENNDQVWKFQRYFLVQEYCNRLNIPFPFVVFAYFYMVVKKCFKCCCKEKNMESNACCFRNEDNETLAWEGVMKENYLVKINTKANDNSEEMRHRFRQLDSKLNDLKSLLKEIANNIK
Procedure: as §1, §2, §3, §4, §5

[5] = ligand 1-octen-3-ol 30 μM, read-out: IC50 OR8 OR7
[6] = ligand indole 30 μM, read-out: IC50 OR10 OR7
[7] = ligand menthol 300 μM, read-out: IC50 TRPM8

Sequence of OR8/OR7 (Q7QCC7 whole entry): as the sequence (Q7QCC7 whole entry) above
Sequence of OR8/OR7 (Q7PUT5 entry or part of it): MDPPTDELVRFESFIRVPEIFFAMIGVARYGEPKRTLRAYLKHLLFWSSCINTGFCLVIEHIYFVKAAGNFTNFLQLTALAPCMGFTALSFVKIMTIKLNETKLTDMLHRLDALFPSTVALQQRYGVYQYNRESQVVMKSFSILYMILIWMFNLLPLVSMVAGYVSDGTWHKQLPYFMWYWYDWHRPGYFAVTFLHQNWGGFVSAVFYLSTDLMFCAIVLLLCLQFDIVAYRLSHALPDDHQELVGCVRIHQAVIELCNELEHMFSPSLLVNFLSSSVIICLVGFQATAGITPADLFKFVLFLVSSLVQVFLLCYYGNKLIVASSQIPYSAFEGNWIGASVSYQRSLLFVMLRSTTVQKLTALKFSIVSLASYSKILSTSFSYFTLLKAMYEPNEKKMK

Row | SMILES | inhibition at 4 µM ([1]; compound applied at 4 μM) [%] | inhibition at 4 µM ([2]; compound applied at 4 μM) [%] | inhibition at 4 µM ([3]; compound applied at 4 μM) [%] | inhibition at 4 µM ([4]; compound applied at 4 μM) [%] | IC50 [4, 7] [µM] | IC50 [2] [µM] | other results
1 | COCCNC(=O)c1ccc(CSc2nnc(-c3ccc(C)cc3)n2-c2ccccc2C)cc1 [RU-0053556] | 26 to 50 | 51 to 74 | 26 to 50 | 26 to 50 |  |  | IC50 ([2]; Table B, read-out: IC50 OR10): > 1 µM
2 | COCCCN(Cc1c(-c2ccccc2)noc1N1CCC(C)CC1)C(=O)c1ccccc1F [RU-0036876] | 51 to 74 | < 25 | 26 to 50 | < 25 |  |  | IC50 ([1]; Table B, read-out: IC50 OR8): > 1 µM
3 | Cc1ccccc1C(=O)N[C@@H]1CCCCC1NC(=O)C1CCCN(S(=O)(=O)c2cc(Cl)ccc2Cl)C1 (stereo partly drawn) [RU-0045691] | < 25 | 26 to 50 | 26 to 50 | < 25 |  |  | 
4 | CCN(CC)C(=O)c1cccc(C)c1 [DEET, N,N-diethyl-m-toluamide, reference compound] |  |  |  |  | > 20 |  | IC50 [1, 5]: > 50 µM; IC50 [2, 6]: > 50 µM
5 | CCNc1nc(NCC)nc(SC)n1 [RU-T4] |  |  |  |  | > 20 | 20 to 50 | IC50 [1]: 2 to 20 µM
6 | CN(C)c1ccc(C(=O)N2CCOC(COCc3ccccc3F)C2)cc1 (stereo not drawn) [RU-0050325] | 26 to 50 | < 25 | < 25 | < 25 |  |  | 
7 | C=CCNC(=O)C(NC(=O)c1cccc(C)c1)C1CCN(C(=O)c2cccc(Br)c2)CC1 (stereo not drawn) [RU-0039123] | 26 to 50 | 26 to 50 | 26 to 50 | < 25 |  |  | 
8 | CCN(CC)C(=O)Oc1ccc2c(ccn2Cc2ccccc2Cl)c1NC(=O)CCCCC(=O)OC [RU-0075446] |  |  |  |  |  | < 0.1 | inhibition at 4 µM [1]: < 25%; inhibition at 4 µM [2]: > 75%; inhibition at 4 µM [3]: < 25%; inhibition at 4 µM [4]: < 25%
9 | CCNc1nc(NC(C)C)nc(N(C#N)Cc2ccccc2)n1 [RU-0015806] | < 25 | 26 to 50 | < 25 | 26 to 50 |  |  | IC50 ([2]; Table B, read-out: IC50 OR10): > 1 µM
10 | COc1cccc(-c2nnc(SCCCC(=O)N3CCN(C(=O)CC(C)(C)C)C(C)C3)n2-c2ccc(C)cc2)c1 (stereo not drawn) [RU-0071818] | < 25 | 51 to 74 | 51 to 74 | < 25 |  |  | IC50 ([2]; Table B, read-out: IC50 OR10): > 1 µM; IC50 ([3]; Table B): > 1 µM
11 | Fc1ccccc1/C=N/Nc1nc(N2CCCCC2)nc(N2CCOCC2)n1 [RU-0018338] | < 25 | 26 to 50 | 26 to 50 | 26 to 50 |  |  | 
12 | COc1ccc(OCC(=O)N2CCOC(Cc3ccccc3)C2)cc1 (stereo not drawn) [RU-0050384] | < 25 | < 25 | < 25 | < 25 |  |  | 
13 | CCOC(=O)C1CCCN(C(=O)c2csc(CSc3nnc(-c4cccc(OC)c4)n3-c3ccc(C)cc3)n2)C1 (stereo not drawn) [RU-0071628] | 26 to 50 | < 25 | 26 to 50 | < 25 |  |  | 
14 | Cc1nn(-c2ccc(Cl)cc2)c(C)c1C(=O)NCc1ccccn1 [RU-0048608] | < 25 | 51 to 74 | < 25 | < 25 |  |  | IC50 ([2]; Table B, read-out: IC50 OR10): > 1 µM
15 | CC(=O)OCC(=O)NCC1Cc2cc(Oc3ccccc3)ccc2O1 (stereo not drawn) [RU-0079120] | < 25 | > 75 | < 25 | < 25 |  |  | IC50 ([2]; Table B, read-out: IC50 OR10): < 0.1 µM
16 | COCCCN(Cc1c(-c2ccccc2)noc1N1CCCC1)C(=O)c1ccc(F)cc1 [RU-0037386] | 51 to 74 | 26 to 50 | 26 to 50 | < 25 |  |  | IC50 ([1]; Table B, read-out: IC50 OR8): > 1 µM

Row | SMILES | inhibition at 4 µM ([1]; compound applied at 4 μM) [%] | inhibition at 4 µM ([2]; compound applied at 4 μM) [%] | inhibition at 4 µM ([3]; compound applied at 4 μM) [%] | inhibition at 4 µM ([4]; compound applied at 4 μM) [%] | IC50 [4, 7] [µM] | IC50 [2] [µM] | other results
17 | CCNc1nc(NC(C)C)nc(SC)n1 [RU-T3] |  |  |  |  | > 20 | 2 to 20 | IC50 [1]: 2 to 20 µM
18 | COc1ccccc1C(=O)C1CCCN(C(=O)c2cccc(N3CCOCC3)c2)C1 (stereo not drawn) [RU-0029350] | 26 to 50 | 51 to 74 | 26 to 50 | 26 to 50 |  |  | IC50 ([1]; Table B, read-out: IC50 OR8): > 1 µM; IC50 ([2]; Table B, read-out: IC50 OR10): > 1 µM
19 | O=C(CCC1CCN(C(=O)c2cccc(-n3cccn3)c2)CC1)Nc1ccccc1 [RU-0032465] | 51 to 74 | < 25 | 26 to 50 | 26 to 50 |  |  | IC50 ([1]; Table B, read-out: IC50 OR8): > 1 µM
20 | C=CCN(Cc1nccn1Cc1ccccc1F)C(=O)c1cccc(F)c1 [RU-0058232] | 26 to 50 | > 75 | 26 to 50 | 26 to 50 |  |  | IC50 ([2]; Table B, read-out: IC50 OR10): < 0.1 µM
21 | Cc1nc(NC(C)C)nc(NC(C)C)n1 [RU-T6] |  |  |  |  |  | > 20 | IC50 [1]: < 2 µM; IC50 [4]: > 20 µM
22 | CSc1nc(NC(C)C)nc(NC(C)C)n1 [RU-T2] |  |  |  |  | > 20 | 2 to 20 | IC50 [1]: < 2 µM
23 | CN(Cc1nccn1Cc1c(F)cccc1Cl)C(=O)C1CCCC1 [RU-I5] |  |  |  |  | > 20 |  | IC50 [1, 5]: 2 to 20 µM; IC50 [2, 6]: > 20 µM
24 | CC(C)Nc1nc(Cl)nc(NCc2ccccc2)n1 [RU-T9] |  |  |  |  |  | > 20 | IC50 [1]: > 220 µM; IC50 [4]: > 20 µM
25 | CCNc1nc(Cl)nc(NC(C)C)n1 [RU-T5] |  |  |  |  | > 20 | 2 to 20 | IC50 [1]: < 2 µM
26 | Fc1cccc(Cl)c1Cn1ccnc1CN(CC1CCCC1)C1CC1 [RU-I4] |  |  |  |  | > 20 |  | IC50 [1, 5]: > 220 µM; IC50 [2, 6]: > 20 µM
27 | CC(C)Nc1nc(Cl)nc(NC(C)C)n1 [RU-T1] |  |  |  |  | > 20 | > 20 | IC50 [1]: > 220 µM
28 | CC(C)Nc1nc(NC(C)C)nc(C(F)(F)F)n1 [RU-T8] |  |  |  |  |  | > 20 | IC50 [1]: 2 to 20 µM; IC50 [4]: > 20 µM
29 | C=CCN(Cc1nccn1Cc1cccc(F)c1)C(=O)c1ccccc1F [RU-I1] |  |  |  |  | > 20 |  | IC50 [1, 5]: 20 to 50 µM; IC50 [2, 6]: 2 to 20 µM
30 | CC(C)Nc1nc(Cl)nc(N(C)C(C)C)n1 [RU-T7] |  |  |  |  |  | > 20 | IC50 [1]: < 2 µM; IC50 [4]: > 20 µM
31 | O=C(c1nccn1Cc1c(F)cccc1Cl)N(CC1CCCC1)C1CC1 [RU-I3] |  |  |  |  | > 20 |  | IC50 [1, 5]: < 2 µM; IC50 [2, 6]: 2 to 20 µM
32 | O=C(C1CCCC1)N(Cc1nccn1CCc1c(F)cccc1Cl)C1CC1 [RU-I2] |  |  |  |  | > 20 |  | IC50 [1, 5]: 2 to 20 µM; IC50 [2, 6]: 2 to 20 µM
